Measured values: BigSolDB 2.1

O=C1CCc2cc(OCCCCc3nnnn3C3CCCCC3)ccc2N1
solubility (mole fraction)
Settings	in 1,4-dioxane	in 2-butanone	in acetone	in acetonitrile	in ethanol	in ethyl acetate	in isopropanol	in methanol	in n-butanol	in n-propanol
273.15 K	–	0.00289	0.00168	0.0003	0.000168	0.000115	8.4e-05	0.000258	0.000437	0.000206
278.15 K	–	0.00345	0.00206	0.000506	0.000282	0.000205	0.000155	0.00041	0.000656	0.000334
283.15 K	–	0.00399	0.00244	0.000705	0.000406	0.00031	0.000233	0.000573	0.000907	0.000487
288.15 K	0.00525	0.00464	0.00287	0.000935	0.00054	0.000428	0.000324	0.000754	0.00119	0.000634
293.15 K	0.0061	0.00529	0.00332	0.00119	0.00069	0.000556	0.000421	0.000955	0.0015	0.000813
298.15 K	0.00708	0.006	0.00381	0.00151	0.000847	0.000704	0.000543	0.00117	0.00184	0.00098
303.15 K	0.00819	0.00677	0.00433	0.00187	0.00102	0.000861	0.000683	0.00141	0.00222	0.00116
308.15 K	0.0095	0.00774	0.00487	0.00226	0.00122	0.00102	0.000833	0.00166	0.00263	0.00136
313.15 K	0.0112	0.00881	0.00557	0.00273	0.00144	0.00119	0.000981	0.00193	0.00307	0.0016
